According to patent US4499081A, “Peptide compounds” (Nyegaard & Co A/S, priority 1982, dated 1985):
Square brackets hold non-standard residues; d marks the D form. Peptide text beside a SMILES is read from it. pGlu = O=C1CC[C@@H](C(=O)O)N1

Experiments:
[1] = tested on: myelopoietic system; experiment: injection of peptide into mice, effect on hemopoiesis; format: in vivo
[2] = tested on: granulopoiesis; experiment: activity as granulopoiesis inhibition factor
Description: Due to the minute amounts of the natural granulopoiesis factor available, the structure of the natural substance has not been determined. It has never been obtained in crystalline or completely pure form and it is not known whether this could be achieved using material from natural sources only. In contrast, the peptides of the invention can be obtained in crystalline form suitable for pharmaceutical use and in relatively large quantities, free from contaminating peptides and proteins of natural origin.

[3] = injected into mice at a relatively low dose level
[4] = mice, injections at 10^-5 M for six successive days

SMILES	production of myelopoietic cells after treatment ([1]; after treatment with the peptide, inhibitory effect reversible, normal cell population overshoots temporarily)	effect on other cell lineages deriving from the pluripotent stem cells [1, 3]	effect on the myelopoietic system (morphologically recognisable cells and committed stem cells) [1, 3]	effect on the whole hemopoietic system, including production of lymphocytes ([1]; mice, 10^-5 M for three weeks)	peripheral granulocytes ([1]; mice, concentration of 10^-7 M in the extracellular fluid, greatest in the mature cells)	pluripotent stem cells and production of erythrocytes [1, 4]	population of committed stem cells [1, 4]	granulopoiesis inhibition activity [2]
NCCCC[C@H](NC(=O)[C@H](CS)NC(=O)[C@H](CC(=O)O)NC(=O)[C@H](CCC(=O)O)NC(=O)[C@@H]1CCC(=O)N1)C(=O)O [Compound (1), L-pyroGlutamyl-L-glutamyl-L-aspartyl-L-cysteinyl-L-lysine] ([pGlu]EDCK-OH)	temporarily abnormally increased	not affected	selective inhibition of the myelopoietic system	strong stimulation	marked decrease	reduced	strong reduction	–
NCCCC[C@H](NC(=O)[C@H](CS)NC(=O)[C@H](CC(=O)O)NC(=O)[C@H](CC(=O)O)NC(=O)[C@@H]1CCC(=O)N1)C(=O)O [pyroGlu-Asp-Asp-Cys-LysOH] ([pGlu]DDCK-OH)	–	–	–	–	–	–	–	inactive
